In patent US20230085307A1, “PYRIDAZINONE COMPOUND AND HERBICIDE” (NISSAN CHEMICAL CORPORATION, priority 2019, published 2023):

What was measured:
[1] = test system: barnyard grass; assay: Test Example 3: herbicidal effect by foliage application, Wagner pot (Table 18, symbol H); assay type: in vivo, barnyard grass (Echinochloa crus-galli); details: for herbicidal effect on H: barnyard grass: amount of applied herbicide 320 g/ha
Summary of the method: (§1)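 Plants were sown in alluvial soil held under 0.1–0.5 cm standing water and grown 14 days in a greenhouse at 25–30 °C. An emulsifiable formulation, water-diluted to the set dose, was then sprayed onto the foliage, and effects were scored three weeks later using previously defined criteria.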

[2] = test system: Chinese sprangletop; assay: Test Example 3: herbicidal effect by foliage application, Wagner pot (Table 18, symbol D); assay type: in vivo, chinese sprangletop (Leptochloa chinensis); details: for herbicidal effect on D: Chinese sprangletop: amount of applied herbicide 320 g/ha
Summary of the method: as §1

[3] = test system: southern crabgrass; assay: Test Example 5: herbicidal effect by foliage application, plastic box (Table 20, symbol F); assay type: in vivo, southern crabgrass (Digitaria ciliaris); details: foliage application, 320 g/ha, three weeks after application
Summary of the method: (§2)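 Sow seeds spot-wise in sterilized diluvial soil; cover with ~1.5 cm soil. Grow 14 days in greenhouse, 25° C. to 30° C. Spray foliage with emulsion diluted to predetermined amount. Rate effect after 3 weeks.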

[4] = test system: persian speedwell; assay: Test Example 5: herbicidal effect by foliage application, plastic box (Table 20, symbol R); assay type: in vivo, Persian speedwell (Veronica persica); details: foliage application, 320 g/ha, three weeks after application
Summary of the method: as §2

[5] = test system: chickweed; assay: Test Example 5: herbicidal effect by foliage application, plastic box (Table 20, symbol P); assay type: in vivo, common chickweed (Stellaria media); details: foliage application, 320 g/ha, three weeks after application
Summary of the method: as §2

[6] = test system: rice flat sedge; assay: Test Example 3: herbicidal effect by foliage application, Wagner pot (Table 18, symbol E); assay type: in vivo, rice flat sedge (Cyperus iria); details: for herbicidal effect on E: rice flat sedge: amount of applied herbicide 320 g/ha
Summary of the method: as §1

[7] = test system: lambsquarters; assay: Test Example 5: herbicidal effect by foliage application, plastic box (Table 20, symbol O); assay type: in vivo, lambsquarters (Chenopodium album); details: foliage application, 320 g/ha, three weeks after application
Summary of the method: as §2

[8] = test system: redroot pigweed; assay: Test Example 5: herbicidal effect by foliage application, plastic box (Table 20, symbol N); assay type: in vivo, redroot pigweed (Amaranthus retroflexus); details: foliage application, 320 g/ha, three weeks after application
Summary of the method: as §2

[9] = test system: velvetleaf; assay: Test Example 5: herbicidal effect by foliage application, plastic box (Table 20, symbol M); assay type: in vivo, velvetleaf (Abutilon theophrasti); details: foliage application, 320 g/ha, three weeks after application
Summary of the method: as §2

[10] = test system: Italian ryegrass; assay: Test Example 5: herbicidal effect by foliage application, plastic box (Table 20, symbol K); assay type: in vivo, Italian ryegrass (Lolium multiflorum); details: foliage application, 320 g/ha, three weeks after application
Summary of the method: as §2

[11] = test system: windgrass; assay: Test Example 5: herbicidal effect by foliage application, plastic box (Table 20, symbol L); assay type: in vivo, windgrass (Apera spica-venti); details: foliage application, 320 g/ha, three weeks after application
Summary of the method: as §2

[12] = test system: wild oat; assay: Test Example 5: herbicidal effect by foliage application, plastic box (Table 20, symbol I); assay type: in vivo, wild oat (Avena fatua); details: foliage application, 320 g/ha, three weeks after application
Summary of the method: as §2

[13] = test system: green foxtail; assay: Test Example 5: herbicidal effect by foliage application, plastic box (Table 20, symbol G); assay type: in vivo, green foxtail (Setaria viridis); details: foliage application, 320 g/ha, three weeks after application
Summary of the method: as §2

[14] = test system: blackgrass; assay: Test Example 5: herbicidal effect by foliage application, plastic box (Table 20, symbol J); assay type: in vivo, blackgrass (Alopecurus myosuroides); details: foliage application, 320 g/ha, three weeks after application
Summary of the method: as §2

[15] = test system: barnyard grass; assay: Test Example 5: herbicidal effect by foliage application, plastic box (Table 20, symbol H); assay type: in vivo, barnyard grass (Echinochloa crus-galli); details: foliage application, 320 g/ha, three weeks after application
Summary of the method: as §2

COc1ccccc1-c1sc2ccc(F)cc2c1-c1c(O)c(C)nn(Cc2ccccc2)c1=O [2-438]
herbicidal effect on H: barnyard grass [1]: 2 (Herbicidal rate of 20% or more and less than 40%) | herbicidal effect on D: Chinese sprangletop [2]: 0 (Herbicidal rate of 5% or less (almost no effect)) | F: southern crabgrass, herbicidal effect grade [3]: 0 (Herbicidal rate of 5% or less (almost no effect)) | R: persian speedwell, herbicidal effect grade [4]: 0 (Herbicidal rate of 5% or less (almost no effect)) | P: chickweed, herbicidal effect grade [5]: 0 (Herbicidal rate of 5% or less (almost no effect)) | herbicidal effect on E: rice flat sedge [6]: 2 (Herbicidal rate of 20% or more and less than 40%) | O: lambsquarters, herbicidal effect grade [7]: 0 (Herbicidal rate of 5% or less (almost no effect)) | N: redroot pigweed, herbicidal effect grade [8]: 3 (Herbicidal rate of 40% or more and less than 70%) | M: velvetleaf, herbicidal effect grade [9]: 0 (Herbicidal rate of 5% or less (almost no effect)) | K: Italian ryegrass, herbicidal effect grade [10]: 0 (Herbicidal rate of 5% or less (almost no effect)) | L: windgrass, herbicidal effect grade [11]: 0 (Herbicidal rate of 5% or less (almost no effect)) | I: wild oat, herbicidal effect grade [12]: 0 (Herbicidal rate of 5% or less (almost no effect)) | G: green foxtail, herbicidal effect grade [13]: 0 (Herbicidal rate of 5% or less (almost no effect)) | J: blackgrass, herbicidal effect grade [14]: 0 (Herbicidal rate of 5% or less (almost no effect)) | H: barnyard grass, herbicidal effect grade [15]: 0 (Herbicidal rate of 5% or less (almost no effect))

Cc1nn(C)c(=O)c(-c2c(-c3ccc(Oc4ncc(C(F)(F)F)cc4Cl)cc3)sc3ccc(F)cc23)c1O [2-467]
herbicidal effect on H: barnyard grass [1]: 3 (Herbicidal rate of 40% or more and less than 70%) | herbicidal effect on D: Chinese sprangletop [2]: 4 (Herbicidal rate of 70% or more and less than 90%) | F: southern crabgrass, herbicidal effect grade [3]: 0 (Herbicidal rate of 5% or less (almost no effect)) | R: persian speedwell, herbicidal effect grade [4]: 4 (Herbicidal rate of 70% or more and less than 90%) | P: chickweed, herbicidal effect grade [5]: 3 (Herbicidal rate of 40% or more and less than 70%) | herbicidal effect on E: rice flat sedge [6]: 4 (Herbicidal rate of 70% or more and less than 90%) | O: lambsquarters, herbicidal effect grade [7]: 4 (Herbicidal rate of 70% or more and less than 90%) | N: redroot pigweed, herbicidal effect grade [8]: 3 (Herbicidal rate of 40% or more and less than 70%) | M: velvetleaf, herbicidal effect grade [9]: 1 (Herbicidal rate of 5% or more and less than 20%) | K: Italian ryegrass, herbicidal effect grade [10]: 0 (Herbicidal rate of 5% or less (almost no effect)) | L: windgrass, herbicidal effect grade [11]: 5 (Herbicidal rate of 90% or more (almost completely withered)) | I: wild oat, herbicidal effect grade [12]: 0 (Herbicidal rate of 5% or less (almost no effect)) | G: green foxtail, herbicidal effect grade [13]: 2 (Herbicidal rate of 20% or more and less than 40%) | J: blackgrass, herbicidal effect grade [14]: 0 (Herbicidal rate of 5% or less (almost no effect)) | H: barnyard grass, herbicidal effect grade [15]: 1 (Herbicidal rate of 5% or more and less than 20%)

COc1ccccc1-c1sc2cc(F)ccc2c1-c1c(OC(=O)c2ccccc2C)c(C)nn(C)c1=O [3-022]
herbicidal effect on H: barnyard grass [1]: 4 (Herbicidal rate of 70% or more and less than 90%) | herbicidal effect on D: Chinese sprangletop [2]: 2 (Herbicidal rate of 20% or more and less than 40%) | F: southern crabgrass, herbicidal effect grade [3]: 0 (Herbicidal rate of 5% or less (almost no effect)) | R: persian speedwell, herbicidal effect grade [4]: 0 (Herbicidal rate of 5% or less (almost no effect)) | P: chickweed, herbicidal effect grade [5]: 3 (Herbicidal rate of 40% or more and less than 70%) | herbicidal effect on E: rice flat sedge [6]: 0 (Herbicidal rate of 5% or less (almost no effect)) | O: lambsquarters, herbicidal effect grade [7]: 0 (Herbicidal rate of 5% or less (almost no effect)) | N: redroot pigweed, herbicidal effect grade [8]: 3 (Herbicidal rate of 40% or more and less than 70%) | M: velvetleaf, herbicidal effect grade [9]: 0 (Herbicidal rate of 5% or less (almost no effect)) | K: Italian ryegrass, herbicidal effect grade [10]: 0 (Herbicidal rate of 5% or less (almost no effect)) | L: windgrass, herbicidal effect grade [11]: 0 (Herbicidal rate of 5% or less (almost no effect)) | I: wild oat, herbicidal effect grade [12]: 0 (Herbicidal rate of 5% or less (almost no effect)) | G: green foxtail, herbicidal effect grade [13]: 0 (Herbicidal rate of 5% or less (almost no effect)) | J: blackgrass, herbicidal effect grade [14]: 0 (Herbicidal rate of 5% or less (almost no effect)) | H: barnyard grass, herbicidal effect grade [15]: 0 (Herbicidal rate of 5% or less (almost no effect))

CCOc1ccccc1-c1sc2cc(O)ccc2c1-c1c(O)c(C)nn(C)c1=O [3-097]
herbicidal effect on barnyard grass (H) ([1]; 320 g/ha): 4 (Herbicidal rate of 70% or more and less than 90%) | herbicidal effect on Chinese sprangletop (D) ([2]; 320 g/ha): 4 (Herbicidal rate of 70% or more and less than 90%) | F: southern crabgrass, herbicidal effect grade [3]: 4 (Herbicidal rate of 70% or more and less than 90%) | R: persian speedwell, herbicidal effect grade [4]: 3 (Herbicidal rate of 40% or more and less than 70%) | P: chickweed, herbicidal effect grade [5]: 3 (Herbicidal rate of 40% or more and less than 70%) | herbicidal effect on rice flat sedge (E) ([6]; 320 g/ha): 3 (Herbicidal rate of 40% or more and less than 70%) | O: lambsquarters, herbicidal effect grade [7]: 3 (Herbicidal rate of 40% or more and less than 70%) | N: redroot pigweed, herbicidal effect grade [8]: 4 (Herbicidal rate of 70% or more and less than 90%) | M: velvetleaf, herbicidal effect grade [9]: 3 (Herbicidal rate of 40% or more and less than 70%) | K: Italian ryegrass, herbicidal effect grade [10]: 0 (Herbicidal rate of 5% or less (almost no effect)) | L: windgrass, herbicidal effect grade [11]: 2 (Herbicidal rate of 20% or more and less than 40%) | I: wild oat, herbicidal effect grade [12]: 1 (Herbicidal rate of 5% or more and less than 20%) | G: green foxtail, herbicidal effect grade [13]: 5 (Herbicidal rate of 90% or more (almost completely withered)) | J: blackgrass, herbicidal effect grade [14]: 0 (Herbicidal rate of 5% or less (almost no effect)) | H: barnyard grass, herbicidal effect grade [15]: 2 (Herbicidal rate of 20% or more and less than 40%)
